Assay results taken from patent publication US3966793A (priority 1964, dated 1976).
Entries after “also recorded” stand apart in the source; their conditions may differ. Structures can show the parent of a compound that is named as a salt.

Legend:
mice [1] = assay: Traction test (mice), myorelaxant activity; assay type: in vivo; settings: Mus musculus, po, read-out: Traction, 50% effective dose
Description: This consists in observing when the treated animals are capable of retrieving a rod grasped by the front paws only. Inability to carry this out was interpreted as a sign of myorelaxant activity.

mice [2] = assay: Anti-convulsant activity (electric shock) (mice); assay type: in vivo; settings: Mus musculus, po, read-out: Electric shock, 50% effective dose
Description: 4. Anti-convulsant activity (electric shock) (mice)
The test consists in determining the intensity of the electric current required to produce a fatal shock in a batch of test animals.
Certain preventively administered compounds effectively protect a certain percentage of animals subjected to an electric current of an intensity which is fatal to untreated animals.

mouse [3] = assay: Spontaneous motor activity in the mouse; assay type: in vivo; settings: Mus musculus, po, read-out: Spontaneous motor activity, 50% effective dose
Description: (§1) 6. Spontaneous motor activity in the rat and mouse and provoked motor activity
(§2) The effect of drugs on voluntary movements of animals can be studied statistically by methods, the details of which will not be discussed here. The mouse, which is an extremely lively animal and moves about a great deal, is particularly suitable for this type of experiment.

mice [4] = assay: Anti-convulsant activity (anti-pentetrazole) (mice); assay type: in vivo; settings: mouse, PO; pentetrazole 125 mg./kg. IP; read-out: Anti-pentetrazole, 50% effective dose
Protocol: 3. Anti-convulsant activity (anti-pentetrazole) (mice)
Pentetrazole, injected intraperitoneally in a dose of 125 mg./kg. produces fatal convulsions in 100% of the animals.
Certain compounds exert a protective action preventing convulsions and permitting survival.

mice [5] = assay: Balance test: rotating rod (mice) (Equilibration); assay type: in vivo; settings: Mus musculus, po, read-out: Equilibration, 50% effective dose
Description: 2. Balance test: rotating rod (mice)
This test consists in observing whether the treated animals are capable of maintaining their balance on a horizontal rod kept in rotation.
Numerous neuroleptic compounds or tranquilizers disturb the equilibration reflex.

mice [6] = assay: Exploration test (mice); assay type: in vivo; settings: Mus musculus, read-out: Exploration, 50% effective dose
Protocol: 5. Exploration test (mice)
This extremely simple test consists in placing a mouse at the center of a floor pierced with holes and in noting how many holes the mouse explores in 5 minutes. This test is carried out in a room in which complete silence is observed and which contains no person except the experimenter who is seated and still. It appeals to the curiosity of the animals. The doses of the compounds employed are, however, very small and considerably less than those required to impair movement. This simple test makes it possible to observe whether the compounds assayed produce a more or less pronounced lack of interest in the environment and it gives information which is interesting from the clinical point of view with regard to the treatment of anxiety and restlessness.

mouse [7] = assay: Potentiation of narcosis (M); assay type: in vivo; settings: PO, read-out: Narcotic potentiation, 50% effective dose
Description: 12. Potentiation of narcosis
Most psycholeptics are hypnotics in large doses, but many of them can, in small doses, without themselves producing any hypnosis, either prolong the time of sleep obtained with a true hypnotic (for example a barbiturate) or appreciably lower the dose of barbiturate required to obtain sleep.

cats = assay: Aggressiveness (cat/mouse); assay type: in vivo; settings: Felis catus, SC, read-out: Aggressiveness, 50% effective dose
Description: 9. Aggressiveness (cat/mouse)
In general, 75 to 80% of cats are aggressive when confronted with white mice. Psycholeptics and tranquilizers may make the cat indifferent and sometimes even amiable to the mouse. Similarly, in the case of cats that are furious and aggressive in relation to humans, diminution or suppression of the instinctive fear and establishment of a climate of confidence are observed.

rat [8] = assay: Benzedrine provoked motor activity (R); assay type: in vivo; settings: PO, read-out: Benzedrine provoked motor activity, 50% effective dose
Description: as §1, §2
(§3) Moreover, this spontaneous mobility can be exacerbated by preventive administration to the animals of certain substances such as benzedrine, mescaline and ritaline.
(§4) The experimental results obtained by these methods give valuable information for clinical purposes with regard to the treatment of ambulatory psychomotor crises.

rat [9] = assay: Spontaneous motor activity in the rat; assay type: in vivo; settings: Rattus norvegicus, po, read-out: Spontaneous motor activity, 50% effective dose
Description: as §1, §2

cat = assay: Morphine crisis (C); assay type: in vivo; settings: Felis catus, SC, read-out: Morphine crisis, 50% effective dose
Description: In the cat, morphine produces a specific state of excitation with hallucinations which can be attenuated or suppressed by certain psycholeptic drugs.

male rat = assay: Combativeness (rat); assay type: in vivo; settings: for ED50: rat, PO, read-out: Combativeness, 50% effective dose
Description: It is possible to make a male rat aggressive towards another male rat enclosed in the same cage by passing an electric current of more or less high voltage through the floor of the cage.
This test, like the preceding one, can obviously give information of clinical value for the treatment of aggression diseases.

mouse [10] = assay: Morphine excitation (M); assay type: in vivo; settings: PO, read-out: Morphine excitation, 50% effective dose
Description: In the mouse, the action of morphine is different but also manifested by marked central excitation.

mouse [11] = assay: Antistrychnine activity; assay type: in vivo; settings: po, read-out: Anti-strychnine, 50% effective dose
Description: 7. Antistrychnine activity

mouse [12] = assay: Benzedrine provoked motor activity (M); assay type: in vivo; settings: PO, read-out: Benzedrine provoked motor activity, 50% effective dose
Description: as §1, §2, §3, §4

Acute toxicity (M) LD 50 = settings: in vivo, mouse
[13] = Reaction (pH) of aqueous solution; assay type: physicochemical
central nervous system = assay: Pharmacodynamic / central nervous system tests taken together; assay type: in vivo
Description: A certain number of the compounds described in the present application have been studied with regard to their action on the central nervous system, as psycholeptics, myorrelaxants and tranquilizers. In addition, the acute toxicity has been determined for a number of these compounds.
It has thereby been possible to make quantitative comparisons of the activity of the different compounds for the different tests employed.

Structure (SMILES) | ED50 (mice [1]) | ED50 (mice [2]) | ED50 (mouse [3]) | ED50 (mice [4]) | Solubility in water (Solubility) | ED50 (mice [5]) | ED50 (mice [6]; po) | Reaction / pH of aqueous solution [13] | also measured
Cc1ccc2c(c1)C(c1ccccc1)=NC(C(=O)O)C(=O)N2.[K+].[K+].[OH-].[OH-] (stereo not drawn) [4339 CB, 7-Methyl-2,3-dihydro-2-oxo-5-phenyl-1H-benzo[f]-1,4-diazepine-3-carboxylic acid, monopotassium salt, monopotassium hydroxide] | > 10 mg/kg | > 10 mg/kg | 10 mg/kg | > 10 mg/kg | completely soluble in water | > 10 mg/kg |  |  | 
O=C(O)C1N=C(c2ccccc2)c2cc(Cl)ccc2NC1=O (stereo not drawn) [4372 CB, 7-Chloro-2,3-dihydro-2-oxo-5-phenyl-1H-benzo[f]-1,4-diazepine-3-carboxylic acid, calcium salt] |  |  |  |  | sparingly soluble in water |  |  |  | 
CCN(CC)CCNC(=O)C1N=C(c2ccccc2)c2cc(Cl)ccc2NC1=O (stereo not drawn) [4369 CB, 7-Chloro-3-(2-diethylamino-ethylaminocarbonyl)-5-phenyl-2-oxo-2,3-dihydro-1H-benzo[f]-1,4-diazepine] | > 25 mg/kg | > 20 mg/kg | > 10 mg/kg | > 50 mg/kg |  | > 50 mg/kg | > 20 mg/kg |  | 
CN1C(=O)CN=C(c2ccccc2)c2cc(Cl)ccc21 [Diazepame, 7-Chloro-1-methyl-5-phenyl-2-oxo-2,3-dihydro-1H-benzo[f]-1,4-diazepine, reference compound] | 1.6 mg/kg | 5 mg/kg | 5 mg/kg | 1.7 mg/kg |  | 4.4 mg/kg | 6 mg/kg |  | ED50 (mouse [7]): 2.5 mg/kg; ED50 (cats): 25 mg/kg; ED50 (rat [8]): 100 mg/kg; ED50 (rat [9]): 25 mg/kg; ED50 (cat): 25 mg/kg; ED50 (male rat): 25 mg/kg; ED50 (mouse [10]): 25 mg/kg; ED50 (mouse [11]): > 50 mg/kg; ED50 (mouse [12]): > 20 mg/kg
O=C(O)C1N=C(c2ccccc2)c2cc([N+](=O)[O-])ccc2NC1=O (stereo not drawn) [4336 CB, 3-[7-nitro-5-phenyl-2-oxo-2,3-dihydro-1H-benzo[f]-1,4-diazepine]-carboxylicacid, potassium salt] | 0.28 mg/kg | 3 mg/kg | 5 mg/kg | 0.31 mg/kg | dissolves in water | 1.5 mg/kg | 6 mg/kg | practically neutral solution | ED50 (cats): 25 mg/kg; LD50 (Acute toxicity (M) LD 50; PO): 800 mg/kg; ED50 (rat [9]): 50 mg/kg; Activity in different tests, especially as myorelaxants and anticonvulsants (central nervous system; different tests of Table VI): extremely active in different tests; Effect on the faculties of displacement (central nervous system; in vivo): less effect on the faculties of displacement; ED50 (cat): 25 mg/kg; ED50 (male rat): 10 mg/kg; Effect in diminishing aggressiveness (male rat; test for combativeness): marked effect in diminishing aggressiveness; ED50 (mouse [11]): 25 mg/kg
O=C(O)C1N=C(c2ccccc2)c2ccccc2NC1=O.[K+].[K+].[OH-].[OH-] (stereo not drawn) [4337 CB, 2,3-Dihydro-2-oxo-5-phenyl-1H-benzo[f]-1,4-diazepine-3-carboxylic acid, monopotassium salt, monopotassium hydroxide] | 5 mg/kg | > 10 mg/kg |  | > 10 mg/kg | completely soluble in water | > 10 mg/kg | > 10 mg/kg | strongly alkaline in reaction | 
CNC1=Nc2ccc(Cl)cc2C(c2ccccc2)=[N+]([O-])C1 [Chlordiazepoxide, reference compound] | 3 mg/kg | 17 mg/kg |  | 5 mg/kg |  | 13 mg/kg | 20 mg/kg |  | LD50 (Acute toxicity (M) LD 50; IP): 80 mg/kg; LD50 (Acute toxicity (M) LD 50; PO): 200 mg/kg; ED50 (rat [8]): > 100 mg/kg; ED50 (cat): 100 mg/kg; ED50 (male rat): 100 mg/kg
CN1C(=O)C(C(=O)O)N=C(c2ccccc2)c2cc(Cl)ccc21.[K+].[K+].[OH-].[OH-] (stereo not drawn) [4350 CB, 7-Chloro-1-methyl-2,3-dihydro-2-oxo-5-phenyl-1H-benzo[f]-1,4-diazepine-3-carboxylic acid, monopotassium salt, monopotassium hydroxide] | 5 mg/kg | 20 mg/kg | > 20 mg/kg | 7.5 mg/kg | very soluble in water; also recorded: completely soluble in water | > 10 mg/kg | 10 mg/kg | strongly alkaline in reaction | 
NC(=O)C(N=C(c1ccccc1)c1cc(Cl)ccc1N)C(=O)O (stereo not drawn) [4349 CB, Potassium salt of 4-phenyl-4-(2-amino-5-chlorophenyl)-2-carbamoyl-3-aza-3-butenoic acid] | 10 mg/kg | > 10 mg/kg | 10 mg/kg | > 10 mg/kg | completely soluble in water | > 10 mg/kg | 10 mg/kg |  | 
O=C(O)C1N=C(c2ccccc2)c2ccccc2NC1=O (stereo not drawn) [4338 CB, 3-[5-Phenyl-2-oxo-2,3-dihydro-1H-benzo[f]-1,4-diazepine]-carboxylic acid, potassium salt] | 5 mg/kg | > 10 mg/kg | 10 mg/kg | > 10 mg/kg | dissolves in water | > 10 mg/kg |  | substantially neutral reaction | ED50 (mice [6]; route not given): > 10 mg/kg
Nc1ccc2c(c1)C(c1ccccc1)=NC(C(=O)O)C(=O)N2.[K+].[K+].[OH-].[OH-] (stereo not drawn) [4371 CB, 7-Amino-2,3-dihydro-2-oxo-5-phenyl-1H-benzo[f]-1,4-diazepine-3-carboxylic acid, monopotassium salt, monopotassium hydroxide] |  |  |  |  | completely soluble in water |  |  | strongly alkaline reaction | 
Cc1ccc2c(c1)C(c1ccccc1)=NC(C(=O)O)C(=O)N2 (stereo not drawn) [4373 CB, 3-[7-methyl-5-phenyl-2-oxo-2,3-dihydro-1H-benzo[f]-1,4-diazepine]-carboxylic acid, potassium salt] |  |  |  |  | completely soluble in water |  |  |  | 
CCOC(=O)C1N=C(c2ccccc2)c2cc(Cl)ccc2NC1=O (stereo not drawn) [4279 CB, 7-Chloro-3-carbethoxy-5-phenyl-2-oxo-2,3-dihydro-1H-benzo[f]-1,4-diazepine] | 8 mg/kg | 25 mg/kg | 100 mg/kg | 10 mg/kg |  | 50 mg/kg | 25 mg/kg |  | ED50 (rat [8]): > 100 mg/kg; ED50 (rat [9]): 100 mg/kg
